Test system: SD rat adjuvant arthritis (AA) model
Experiment: SD rat adjuvant arthritis (AA) model, arthritis index
Type: in vivo
Protocol: In this example, SD rat adjuvant arthritis (AA) model (purchased from the Experimental Animal Center of Anhui Province) was used. PCI-32765 and methotrexate (MTX) were used as positive control (both purchased from Shanghai Chemexpress). The therapeutic effect of Compound 1 on AA rats was studied via the combination of in vivo and in vitro administration. 10 mg/nal of complete Freund's adjuvant (CFA, purchased from Shanghai Chemexpress) was mixed well, and 0.1 ml of CFA was intracutaneously injected into each rat at right posterior plantar to induce inflammation. The normal group was injected with saline via the same method. On the 17th day, the successful modeling male SD rats were randomly divided into 7 groups with 10 rats in each group, namely the model group, the small/medium/large dose of Compound 1 group (12.5, 25, 50 mg/kg/per administration, intraperitoneal injection, one administration per day for 16 days), the Compound 19 group (25 mg/kg/per administration, intraperitoneal injection, one administration per day for 16 days), the positive control PCI-32765 group (25 mg/kg/per administration, intraperitoneal injection, one administration per day for 16 days), the MTX group (0.5 mg/kg, intragastrical, one administration every 3 days, totally 6 times). The rats in the model group were intraperitoneally injected with the same amount of DMSO solution.

SMILES | effect on arthritis index of rats (25 mg/kg intraperitoneal once per day, starting from day 24) | effect on arthritis index of rats compared with the model group (0.5 mg/kg intragastrical every 3 days, starting from day 21)
C=CC(=O)N1CCC[C@@H](n2nc(-c3ccc(Oc4ccccc4)cc3)c3c(N)ncnc32)C1 [PCI-32765, reference compound] | significantly reduce | –
CN(Cc1cnc2nc(N)nc(N)c2n1)c1ccc(C(=O)N[C@@H](CCC(=O)O)C(=O)O)cc1 [MTX, methotrexate, reference compound] | – | significantly reduced
